The values that follow come from US12116461B2, “Host-guest interactions for pa superstructure formation” (Northwestern University, priority 2020, dated 2024).

Where a SMILES comes first, the peptide text is derived from it. The star is where a group is joined. Palmitoyl = CCCCCCCCCCCCCCCC(=O)*

Data set [1] can be described thus: 1H-NMR titration, association constant of β-cyclodextrin with 1-adamantaneacetic acid. The settings on record: 1:1 host-guest binding model; 125 mM NaCl, 3 mM KCl buffer pH 7.2-7.4, 25° C. Here is the method: The association constant for the binding between 1-adamantaneacetic acid and β-cyclodextrin was measured in 125 mM NaCl and 3 mM KCl buffer at pH 7.2-7.4. In a typical titration experiment, small amounts of a “guest solution” (100 mM 1-adamantaneacetic acid and 3.5 mM β-cyclodextrin in deuterated buffer) were added to approximately 0.8 ml of “host solution” (3.5 mM β-cyclodextrin in deuterated buffer) until at least 5 equiv of “guest” molecules were added. 1H-NMR spectra were obtained at 25° C. upon each addition of the “guest” solution and a binding isotherm was constructed by monitoring the protons on 1-adamantaneacetic acid.
The binding isotherms were fit to a standard 1:1 host-guest binding model (Eq. 1-3) where [HG] is the concentration of host-guest complex, [H]0 is the total concentration of “host” molecules, [G]0 is the total concentration of “guest” molecules, do is the proton peak position at [HG]/[H]0=0, δ is the proton peak position measured at different values of [HG]/[H]0, and δ∞ is a fitting parameter. All spectra were obtained with a X500 Bruker Avance III HD system equipped with a TXO Prodigy probe and analyzed with the MestreNova (Mestrelab Research) software.

A short description of data set [2]: Rheological measurement of storage modulus. It is filed as physicochemical. Conditions: no free adamantane added. As for the experimental part: (§1) PA materials were prepared and annealed using methods described in section 2.1.1. An Anton Paar MCR302 Rheometer with a 25 mm cone plate was used for all rheological studies. 150 μL of PA liquid was placed on the sample stage. For experiments using Free Adamantane, 30 μL of either 1 mM or 2 mM adamantane solution (prepared as described in section 2.1.3) was added in droplets to the top plunger. The plunger was then lowered to the measuring position and a humidity collar was added during the “sample trim” phase to prevent sample evaporation during the measurement. The sample was equilibrated for 30 minutes with a constant angular frequency of 10 rad/s and 0.1% strain. The storage and loss modulus were recorded. For thixotropy studies, the sample was applied to the stage as previously mentioned. The first and third interval consisted of 10, 6 second points with an oscillating shear strain of 0.1% and angular frequency of 10 rad/s. The storage and loss modulus were plotted against time. The second interval consisted of 10, 1 second points with a constant shear rate of 100 s^−1. The viscosity was plotted against time. For recovery experiments, G′ and G″ were measured during alternating intervals of low and high strain. The low strain interval was 200 seconds at 0.5% strain and the high strain interval was 50 seconds at 50% strain.

Data set [3] can be described thus: Thixotropy interval study (before/after high shear). It is filed as physicochemical. As for the experimental part: as §1

As to `OC[C@H]1O[C@@H]2O[C@H]3[C@H](O)[C@@H](O)[C@@H](O[C@H]4[C@H](O)[C@@H](O)[C@@H](O[C@H]5[C@H](O)[C@@H](O)[C@@H](O[C@H]6[C@H](O)[C@@H](O)[C@@H](O[C@H]7[C@H](O)[C@@H](O)[C@@H](O[C@H]8[C@H](O)[C@@H](O)[C@@H](O[C@H]1[C@H](O)[C@H]2O)O[C@@H]8CO)O[C@@H]7CO)O[C@@H]6CO)O[C@@H]5CO)O[C@@H]4CO)O[C@@H]3CO` [β-cyclodextrin], the “association constant (Ka)” value in data set [1] amounted to 395 M⁻¹.

For the molecule `CCCCCCCCCCCCCCCC(=O)N[C@H](C(=O)N[C@H](C(=O)N[C@@H](C)C(=O)N[C@@H](C)C(=O)N[C@@H](CCC(=O)O)C(=O)N[C@@H](CCC(=O)O)C(N)=O)C(C)C)C(C)C` [E2 PA, C16V2A2E2] (Palmitoyl-VVAAEE-NH2), the “storage modulus (G′)” value in data set [2] was 20±12 Pa. In data set [3] (after high shear), the “G′ after high shear” value was determined as 26.8 Pa. Also, the “G′ before high shear” value in data set [3] (before high shear) turned out to be 43.9 Pa.
